Experimental data published in patent US20240307589A1, “LEPTIN RECEPTOR AFFINITY PEPTIDE AND USE THEREOF” (Dubu Biosciences, priority 2021, published 2024).
No end group written: not given here. *: point of attachment. FITC = O=C1OC2(c3ccc(O)cc3Oc3cc(O)ccc32)c2ccc(NC(=S)*)cc21

Legend:
rat lung injury site = test: Recruitment of endogenous MSCs to peptide-bound collagen sponge implanted into rat lung injury site (flow cytometry); format: in vivo; conditions: rat lung defect, 12 h, 24 h or 48 h after implantation, vs control groups; FIGS. 6A to 6F
Method: Rats weighing about 150 g were anesthetized, intubated and subjected to partial resection on middle lobes of right lungs in the case of positive pressure ventilation of ventilators, where lung tissues with a size of about 0.5 cm*0.5 cm*0.3 cm were resected, and the collagen sponges which had been uniformly added dropwise with the CBD-affinity peptide or the control peptides and incubated for 2 h at 37° C. in advance were implanted into rat lung defect sites, respectively. After the rats were sacrificed after 12 h, 24 h or 48 h, respectively, the implanted collagen sponges were completely separated and taken out. The collagen sponges were dissolved with a collagenase, and cells adsorbed on the collagen sponges in vivo were separated and collected. Through identification of expression of CD45, CD44, CD71 and CD90 on surfaces of the cells, proportions of the numbers of MSCs adsorbed on the collagen sponges at the implantation sites were analyzed. The proportions that the MSCs accounted for in the cells digested from the collagen sponges were detected by flow cytometry.

rat lung injury sites = test: Lung injury repair after implantation of peptide-bound collagen sponge (Masson's staining); format: in vivo; conditions: 35 days after implantation, vs control groups, FIG. 7
Excerpt: After a CBD-affinity peptide and control peptides were implanted into rat lung injury sites according to the above method, lung tissues were taken out 35 days later and subjected to pathological identification.

rat MSCs = test: Binding of FITC-labeled peptide to rat MSCs by flow cytometry; format: cell-based; conditions: FITC-labeled peptides, vs M7, FIG. 4
Excerpt: To evaluate the species specificity of the HY7 peptide and provide a basis for subsequent animal experiments, the binding of HY7 to rat MSCs was specifically verified. Rat bone marrow cells were acquired according to a conventional method and subjected to culture and identification, and rat MSCs were obtained. The binding of an FITC-HY7 peptide and an FITC-M7 peptide to the rat MSCs was detected according to the above flow cytometry detection method.

[1] = test system: human bone marrow stromal cell line HS-5; test: Binding recovery of phage to control HS-5 cells (elution and titration); format: cell-based; conditions: FIG. 2B
Method: (§1) An HY7 phage monoclone and an M13KE negative control phage were amplified with reference to the method in Example 1 and titrated. The HY7 phage monoclone and the M13KE negative control phage were added to well plates containing human MSCs with a confluence pre-cultured to about 80%, and an unrelated human bone marrow stromal cell line HS-5 was set as a control. The HY7 phage monoclone and the M13KE negative control phage were subjected to binding and elution according to a step of screening phages to obtain an eluent of the HY7 phage binding to the target protein and an eluent of the M13KE negative control phage binding to the target protein, respectively. The eluent of the HY7 phage binding to the target protein and the eluent of the M13KE negative control phage binding to the target protein were titrated according to a phage titration method. The binding of the HY7 phage monoclone to the target molecule and the binding of the M13KE negative control phage to the target molecule were compared. […] FIG. 2A is a schematic diagram illustrating the binding recovery of an HY7 phage monoclone and an M13KE negative control phage to human MSCs, and FIG. 2B is a schematic diagram illustrating the binding recovery of an HY7 phage monoclone and an M13KE negative control phage to HS-5 cells.

human MSCs = test: Binding recovery of phage to human MSCs (elution and titration); format: cell-based; conditions: vs M13KE negative control phage, FIG. 2A
Method: as §1

binding ability to the rat MSCs (rat MSCs) | Substance | MSCs adsorbed to the collagen sponge (proportion of MSCs in cells digested from sponge) (rat lung injury site) | repair effect at the tissue site (rat lung injury sites) | binding to the control cells HS-5 (binding recovery) [1] | binding to surfaces of the MSCs (binding recovery) (human MSCs)
– | CBD-HY7: CBD (TKKTLRT) on the N-terminus of HY7 through a linker (GGGGS or GGG-K-FITC) (TKKTLRTGGGK(FITC)HGGVRLY) | can adsorb more MSCs to the collagen sponge in a short time | better repair effect | – | –
significantly stronger than that of M7 | HGGVRLY (Leptin receptor affinity peptide) [HY7] | – | – | does not bind | can specifically binds to surfaces of the MSCs
